In PubChem BioAssay (NCI):
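Values below derive from 48-hour exposures of cells grown in 96-well plates, with endpoints linearly interpolated between the two concentrations bracketing the appropriate inhibition level. The concentration for 50% growth inhibition is given as GI50. The concentration for full growth arrest is given as TGI.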

Columns and labels:
Assay in all cases: NCI-60 cell line screen, 48 h
[1] = system: T-47D breast
[2] = system: KM12 colon
[3] = system: U251 CNS
[4] = system: CAKI-1 renal
[5] = system: SN12C renal
[6] = system: HCT-116 colon
[7] = system: HCT-15 colon
[8] = system: UACC-257 melanoma
[9] = system: ACHN renal
[10] = system: HOP-92 NSCLC
[11] = system: HT29 colon
[12] = system: RXF 393 renal
[13] = system: SF-539 CNS
[14] = system: TK-10 renal
[15] = system: SW-620 colon
[16] = system: IGROV1 ovarian
[17] = system: SF-268 CNS
[18] = system: PC-3 prostate
[19] = system: HCC-2998 colon
[20] = system: OVCAR-8 ovarian
[21] = system: OVCAR-4 ovarian
[22] = system: NCI/ADR-RES ovarian
[23] = system: LOX IMVI melanoma
[24] = system: MDA-MB-231 breast
[25] = system: NCI-H226 lung
[26] = system: EKVX NSCLC
[27] = system: UACC-62 melanoma
[28] = system: SK-MEL-2 melanoma
[29] = system: MOLT-4 leukemia
[30] = system: SF-295 CNS
[31] = system: MALME-3M melanoma
[32] = system: UO-31 renal
[33] = system: SK-MEL-5 melanoma
[34] = system: MCF7 breast
[35] = system: NCI-H23 lung
[36] = system: OVCAR-5 ovarian
[37] = system: SK-MEL-28 melanoma
[38] = system: SNB-19 CNS
[39] = system: COLO 205 colon
[40] = system: A549 NSCLC
[41] = system: MDA-N
[42] = system: M14 melanoma
[43] = system: 786-0 renal
[44] = system: DU-145 prostate
[45] = system: RPMI-8226 leukemia
[46] = system: OVCAR-3 ovarian
[47] = system: NCI-H460 lung
[48] = system: SK-OV-3 ovarian
[49] = system: SNB-75 CNS
[50] = system: MDA-MB-435
[51] = system: HOP-62 NSCLC
[52] = system: HS 578T breast
[53] = system: CCRF-CEM leukemia
[54] = system: K-562 leukemia
[55] = system: NCI-H522 lung
[56] = system: BT-549 breast
[57] = system: HL-60(TB) leukemia
[58] = system: SR leukemia
[59] = system: A498 renal

## CC(C)(/C=N/O)/[N+]([O-])=C/c1ccccc1
[1]
  TGI: > 100 µM
[2]
  TGI: > 100 µM
[3]
  TGI: > 100 µM
[4]
  TGI: > 100 µM
[5]
  TGI: > 100 µM
[6]
  TGI: > 100 µM
[7]
  TGI: > 100 µM
[8]
  TGI: > 100 µM
[9]
  TGI: > 100 µM
[10]
  TGI: > 100 µM
[11]
  TGI: > 100 µM
[12]
  TGI: > 100 µM
[13]
  TGI: > 100 µM
[14]
  TGI: > 100 µM
[15]
  TGI: > 100 µM
[16]
  TGI: > 100 µM
[17]
  TGI: > 100 µM
[18]
  TGI: > 100 µM
[19]
  TGI: > 100 µM
[20]
  TGI: > 100 µM
[21]
  TGI: > 100 µM
[22]
  TGI: > 100 µM
[23]
  TGI: > 100 µM
[24]
  TGI: > 100 µM
[25]
  TGI: > 100 µM
[26]
  TGI: > 100 µM
[27]
  TGI: > 100 µM
[28]
  TGI: > 100 µM
[29]
  TGI: > 100 µM
[30]
  TGI: > 100 µM
[31]
  TGI: > 100 µM
[32]
  TGI: > 100 µM
[33]
  TGI: > 100 µM
[34]
  TGI: > 100 µM
[35]
  TGI: > 100 µM
[36]
  TGI: > 100 µM
[37]
  TGI: > 100 µM
[38]
  TGI: > 100 µM
[39]
  TGI: > 100 µM
[40]
  TGI: > 100 µM
[41]
  TGI: > 100 µM
[42]
  TGI: > 100 µM
[43]
  TGI: > 100 µM
[44]
  TGI: > 100 µM
[45]
  TGI: > 100 µM
[46]
  TGI: > 100 µM
[47]
  TGI: > 100 µM
[48]
  TGI: > 100 µM
[49]
  TGI: > 100 µM
[50]
  TGI: > 100 µM
[51]
  TGI: > 100 µM
[52]
  TGI: > 100 µM

## N/C(=N\C(N)=N\c1nc2ccccc2s1)c1ccnc(Br)c1
[1]
  GI50: 8.01 µM
  TGI: > 100 µM
[2]
  GI50: 5.19 µM
  TGI: > 100 µM
[3]
  GI50: 5.63 µM
  TGI: 48.9 µM
[4]
  GI50: 3.33 µM
  TGI: > 100 µM
[5]
  GI50: 5.57 µM
  TGI: > 100 µM
[53]
  GI50: 3.7 µM
  TGI: > 100 µM
[6]
  GI50: 3.28 µM
  TGI: > 100 µM
[7]
  GI50: 3.92 µM
  TGI: > 100 µM
[54]
  GI50: 3.46 µM
  TGI: > 100 µM
[8]
  GI50: > 100 µM
  TGI: > 100 µM
[9]
  GI50: 5.22 µM
  TGI: > 100 µM
[10]
  GI50: 7.02 µM
  TGI: > 100 µM
[11]
  GI50: 3.55 µM
  TGI: > 100 µM
[12]
  GI50: 2.81 µM
  TGI: 27.1 µM
[13]
  GI50: 4.67 µM
  TGI: 95 µM
[14]
  GI50: 52 µM
  TGI: > 100 µM
[15]
  GI50: 3.91 µM
  TGI: > 100 µM
[55]
  GI50: 3.22 µM
  TGI: > 100 µM
[16]
  GI50: 3.63 µM
  TGI: > 100 µM
[56]
  GI50: 4.32 µM
  TGI: > 100 µM
[17]
  GI50: 5.88 µM
  TGI: > 100 µM
[57]
  GI50: 3.02 µM
  TGI: > 100 µM
[18]
  GI50: 4.61 µM
  TGI: > 100 µM
[19]
  GI50: 66 µM
  TGI: > 100 µM
[20]
  GI50: 10.3 µM
  TGI: > 100 µM
[21]
  GI50: 7.83 µM
  TGI: > 100 µM
[22]
  GI50: 2.62 µM
  TGI: 7.95 µM
[23]
  GI50: 4.27 µM
  TGI: > 100 µM
[24]
  GI50: 9.13 µM
  TGI: > 100 µM
[25]
  GI50: 15.9 µM
  TGI: > 100 µM
[26]
  GI50: 30.4 µM
  TGI: > 100 µM
[27]
  GI50: 4.47 µM
  TGI: > 100 µM
[28]
  GI50: 3.81 µM
  TGI: > 100 µM
[29]
  GI50: 4.35 µM
  TGI: > 100 µM
[30]
  GI50: 4.25 µM
  TGI: > 100 µM
[31]
  GI50: 6.22 µM
  TGI: > 100 µM
[58]
  GI50: 2.9 µM
  TGI: > 100 µM
[32]
  GI50: 3.56 µM
  TGI: 84 µM
[33]
  GI50: 3.49 µM
  TGI: > 100 µM
[34]
  GI50: 5.49 µM
  TGI: > 100 µM
[35]
  GI50: 14.2 µM
  TGI: > 100 µM
[36]
  GI50: 62.3 µM
  TGI: > 100 µM
[37]
  GI50: 8.7 µM
  TGI: > 100 µM
[38]
  GI50: 7.1 µM
  TGI: > 100 µM
[39]
  GI50: 11 µM
  TGI: > 100 µM
[40]
  GI50: 22.1 µM
  TGI: > 100 µM
[42]
  GI50: 3.39 µM
  TGI: > 100 µM
[59]
  GI50: 5.14 µM
  TGI: 41 µM
[43]
  GI50: 5.88 µM
  TGI: > 100 µM
[44]
  GI50: 15.2 µM
  TGI: > 100 µM
[45]
  GI50: 4.29 µM
  TGI: > 100 µM
[46]
  GI50: 3.46 µM
  TGI: 18.9 µM
[47]
  GI50: 4.33 µM
  TGI: > 100 µM
[48]
  GI50: 5.95 µM
  TGI: > 100 µM
[49]
  GI50: 2.33 µM
  TGI: 6.89 µM
[50]
  GI50: 2.1 µM
  TGI: 7.32 µM
[51]
  GI50: 3.65 µM
  TGI: 57.2 µM
[52]
  GI50: 3.76 µM
  TGI: 46 µM

## O=C(NCCCl)NCc1ccccc1
[1]
  TGI: > 100 µM
[2]
  TGI: > 100 µM
[3]
  TGI: > 100 µM
[4]
  TGI: > 100 µM
[5]
  TGI: > 100 µM
[53]
  TGI: > 100 µM
[6]
  TGI: > 100 µM
[7]
  TGI: > 100 µM
[54]
  TGI: > 100 µM
[8]
  TGI: > 100 µM
[9]
  TGI: > 100 µM
[10]
  TGI: > 100 µM
[11]
  TGI: > 100 µM
[12]
  TGI: > 100 µM
[15]
  TGI: > 100 µM
[55]
  TGI: > 100 µM
[16]
  TGI: > 100 µM
[17]
  TGI: > 100 µM
[57]
  TGI: > 100 µM
[18]
  TGI: > 100 µM
[19]
  TGI: > 100 µM
[20]
  TGI: > 100 µM
[21]
  TGI: > 100 µM
[22]
  TGI: > 100 µM
[23]
  TGI: > 100 µM
[24]
  TGI: > 100 µM
[25]
  TGI: > 100 µM
[26]
  TGI: > 100 µM
[27]
  TGI: > 100 µM
[28]
  TGI: > 100 µM
[29]
  TGI: > 100 µM
[30]
  TGI: > 100 µM
[31]
  TGI: > 100 µM
[58]
  TGI: > 100 µM
[32]
  TGI: > 100 µM
[33]
  TGI: > 100 µM
[34]
  TGI: > 100 µM
[35]
  TGI: > 100 µM
[36]
  TGI: > 100 µM
[37]
  TGI: > 100 µM
[38]
  TGI: > 100 µM
[39]
  TGI: > 100 µM
[40]
  TGI: > 100 µM
[41]
  TGI: > 100 µM
[59]
  TGI: > 100 µM
[43]
  TGI: > 100 µM
[44]
  TGI: > 100 µM
[45]
  TGI: > 100 µM
[46]
  TGI: > 100 µM
[47]
  TGI: > 100 µM
[48]
  TGI: > 100 µM
[49]
  TGI: > 100 µM
[50]
  TGI: > 100 µM
[51]
  TGI: > 100 µM
[52]
  TGI: > 100 µM
